Data on ten compounds can be found in US3974140A, “Ureidoacetamido-penicillins” (Bayer Aktiengesellschaft, priority 1970, dated 1976).

What all share (assay): MIC, liquid medium test tube series dilution test
One test concerns Proteus vulg. 3400. Format: cell-based, Proteus vulgaris. The note with it: Proteus vulg. 3400, 24 hours, 37°C. The protocol:
(§1) The chemotherapeutic activity of the new penicillins was tested in vivo and in vitro. The in vitro inhibition values (MIC = minimum inhibition concentration (see Tables 1 and 2) were determined in a liquid medium in the test tube series dilution test, with readings being taken after 24 hours' incubation at 37°C. The MIC is indicated by the non-turbid test tube in the dilution series. A complete medium of the following composition was used as the nutrient medium:
(§2) The figures quoted in the Examples for the effectiveness against certain bacteria (units/ml) are minimum inhibitory concentrations in the test tube series dilution test after 24 hours' incubation.

Another test has as its system Proteus vulg. 1017. Format: cell-based, Proteus vulgaris. The settings on record: Proteus vulg. 1017, 24 hours, 37°C. The protocol: as §1, §2
For the next test, the system named is E. coli A 261. Format: cell-based. The note with it: E. coli A 261, 24 hours, 37°C. The protocol:
as §1, §2

The test system of another test is E. coli 183/58. Format: cell-based. The note with it: E. coli 183/58, 24 hours, 37°C. The protocol:
as §1, §2

For test [1], the system named is Streptoc. faec. ATCC 9790. Format: cell-based. The note with it: Strep. faec. (Enterococcus) ATCC 9790, 24 hours, 37°C. The method, then: as §1, §2
The test system of a further test is Klebsiella 63. Format: cell-based. The settings on record: Klebsiella 63, 24 hours, 37°C. The method, then: as §1, §2
In the next test the test system is E. coli C 165. Format: cell-based. The note with it: E. coli C 165, 24 hours, 37°C. The method, then:
as §1, §2

A further test concerns E. coli 14. Format: cell-based. The settings on record: E. coli 14, 24 hours, 37°C. The protocol: as §1, §2
The subject of the next test is Klebsiella K 10. Format: cell-based. The note with it: Klebsiella K 10, 24 hours, 37°C. The protocol:
as §1, §2

For another test, the system named is Staph. aureus 133. Format: cell-based, Staphylococcus aureus. The settings on record: Staph. aureus 133, 24 hours, 37°C. The method, then:
as §1, §2

The test system of the next test is Psdm. aerug. Bonn. Format: cell-based, Pseudomonas aerug. The settings on record: 24 hours, 37°C. The protocol:
as §1, §2

In the next test the test system is Psdm. aerug. Walter. Format: cell-based, Pseudomonas aerug. The settings on record: 24 hours, 37°C. The protocol: as §1, §2

In the case of `CN(C(=O)CCCCl)C(=O)N[C@@H](C(=O)N[C@@H]1C(=O)N2[C@@H]1SC(C)(C)[C@@H]2C(=O)O)c1ccccc1` [Example 2, Sodium D(-)-α-(3-γ-chlorobutyryl-3-methyl-ureido)-benzylpenicillin], the MIC against Proteus vulg. 3400 is listed as 25 units/ml; against Proteus vulg. 1017, 100 units/ml; with E. coli A 261, 400 units/ml; in the test on E. coli 183/58, 12.5 units/ml; in [1] it was 200 units/ml; against Klebsiella 63, 50 units/ml. In addition, the MIC against E. coli C 165 is 12.5 units/ml; with E. coli 14 it was 3.1 units/ml; in the test on Klebsiella K 10, 50 units/ml; in the test with Staph. aureus 133 it was ~ 0.8 units/ml; with Psdm. aerug. Bonn, 100 units/ml; with Psdm. aerug. Walter it was 100 units/ml.

`COC(=O)N(C)C(=O)NC(C(=O)N[C@@H]1C(=O)N2[C@@H]1SC(C)(C)[C@@H]2C(=O)O)c1c(Cl)cccc1Cl` (stereo partly drawn) [Example 9, Sodium D,L-α-(3-methoxycarbonyl-3-methyl-ureido)-2,6-dichlorobenzylpenicillin]: the MIC is reported as > 500 units/ml in the test with Proteus vulg. 3400; > 500 units/ml against Proteus vulg. 1017; > 500 units/ml in the test on E. coli A 261; 100-500 units/ml against E. coli 183/58; ~ 500 units/ml in [1]; > 500 units/ml in the test with Klebsiella 63. Also, the MIC against E. coli C 165 was 100-500 units/ml; against E. coli 14, 20-100 units/ml; against Klebsiella K 10, > 500 units/ml; against Staph. aureus 133, 0.8-4 units/ml; in the test with Psdm. aerug. Bonn, > 500 units/ml; against Psdm. aerug. Walter, > 500 units/ml.

Consider `C=CCN(C(=O)NC(C(=O)N[C@@H]1C(=O)N2[C@@H]1SC(C)(C)[C@@H]2C(=O)O)c1ccc(OC)cc1)C(=O)c1ccccc1` (stereo partly drawn) [Example 14, Sodium D,L-α-(3-benzoyl-3-allyl-ureido)-4-methoxybenzylpenicillin], for which the MIC against Proteus vulg. 3400 is listed as ~ 100 units/ml; against Proteus vulg. 1017 it was 100-500 units/ml; against E. coli A 261, > 500 units/ml; in the test on E. coli 183/58 it was 20-100 units/ml; in [1], 100-500 units/ml; against Klebsiella 63, 20-100 units/ml. Moreover, the MIC in the test with E. coli C 165 is on record as 20-100 units/ml; in the test on E. coli 14 it was 4-20 units/ml; with Klebsiella K 10, 20-100 units/ml; against Staph. aureus 133, 0.8-4 units/ml; in the test on Psdm. aerug. Bonn it was 100-500 units/ml; against Psdm. aerug. Walter it was 100-500 units/ml.

With `C=CCN(C(=O)NC(C(=O)N[C@@H]1C(=O)N2[C@@H]1SC(C)(C)[C@@H]2C(=O)O)c1c(Cl)cccc1Cl)C(=O)c1ccccc1` (stereo partly drawn) [Example 15, Sodium D,L-α-(3-benzoyl-3-allyl-ureido)-2,6-dichlorobenzylpenicillin], the MIC in the test with Proteus vulg. 3400 is given as > 500 units/ml; in the test with Proteus vulg. 1017 it was > 500 units/ml; against E. coli A 261, > 500 units/ml; against E. coli 183/58, 100-500 units/ml; in test [1], > 500 units/ml; against Klebsiella 63, > 500 units/ml. Besides, the MIC was 100-500 units/ml with E. coli C 165; 20-100 units/ml in the test on E. coli 14; > 500 units/ml with Klebsiella K 10; 0.8-4 units/ml against Staph. aureus 133; > 500 units/ml in the test with Psdm. aerug. Bonn; > 500 units/ml in the test on Psdm. aerug. Walter.

On to `C=CCN(C(C)=O)C(=O)NC(C(=O)N[C@@H]1C(=O)N2[C@@H]1SC(C)(C)[C@@H]2C(=O)O)c1cccs1` (stereo partly drawn) [Example 17, Sodium D,L-α-(3-acetyl-3-allyl-ureido)-2-thienylmethylpenicillin], for which the MIC in the test on Proteus vulg. 3400 is 100-500 units/ml; against Proteus vulg. 1017 it was > 500 units/ml; against E. coli A 261, > 500 units/ml; with E. coli 183/58, 20-100 units/ml; in [1], 20-100 units/ml; against Klebsiella 63, 20-100 units/ml. Also, the MIC in the test on E. coli C 165 is recorded as 20-100 units/ml; in the test with E. coli 14, 4-20 units/ml; against Klebsiella K 10, 20-100 units/ml; with Staph. aureus 133 it was < 0.8 units/ml; against Psdm. aerug. Bonn, 100-500 units/ml; against Psdm. aerug. Walter, 100-500 units/ml.

With `COC(=O)N(C)C(=O)NC(C(=O)N[C@@H]1C(=O)N2[C@@H]1SC(C)(C)[C@@H]2C(=O)O)c1ccc(OC)cc1` (stereo partly drawn) [Example 18, Sodium D,L-α-(3-methoxycarbonyl-3-methyl-ureido)-4-methoxybenzylpenicillin], the MIC in the test with Proteus vulg. 3400 is given as 100-500 units/ml; with Proteus vulg. 1017, 100-500 units/ml; against E. coli A 261, > 500 units/ml; against E. coli 183/58, 20-100 units/ml; in [1], ~ 100 units/ml; against Klebsiella 63, 20-100 units/ml. Also, the MIC in the test with E. coli C 165 is on record as 20-100 units/ml; in the test on E. coli 14, 4-20 units/ml; against Klebsiella K 10 it was 20-100 units/ml; against Staph. aureus 133, 0.8-4 units/ml; against Psdm. aerug. Bonn it was 100-500 units/ml; with Psdm. aerug. Walter, 100-500 units/ml.

Consider `CN(C(=O)CCCCl)C(=O)N[C@@H](C(=O)N[C@@H]1C(=O)N2[C@@H]1SC(C)(C)[C@@H]2C(=O)O)c1ccccc1` [Example 24, Sodium D(-)-α-(3-γ-chlorobutyryl-3-methyl-ureido)-benzylpenicillin], for which the MIC against Proteus vulg. 3400 was 50 units/ml; with Proteus vulg. 1017 it was 100 units/ml; against E. coli A 261, > 400 units/ml; with E. coli 183/58, 25 units/ml; in test [1], 200 units/ml; against Klebsiella 63 it was 100 units/ml. Moreover, the MIC is given as 25 units/ml in the test on E. coli C 165; 6.3 units/ml against E. coli 14; 50 units/ml in the test with Klebsiella K 10; ~ 1.6 units/ml in the test on Staph. aureus 133; 100 units/ml in the test on Psdm. aerug. Bonn; 100 units/ml against Psdm. aerug. Walter.

As for `CN(C(=O)NC(C(=O)N[C@@H]1C(=O)N2[C@@H]1SC(C)(C)[C@@H]2C(=O)O)c1c(Cl)cccc1Cl)C(=O)c1ccccc1` (stereo partly drawn) [Example 31, Sodium α-(3-benzoyl-3-methyl-ureido)-2,6-dichlorobenzyl-penicillin], the MIC against Proteus vulg. 3400 is on record as 100-500 units/ml; with Proteus vulg. 1017 it was 100-500 units/ml; against E. coli A 261 it was > 500 units/ml; in the test with E. coli 183/58, 20-100 units/ml; in [1], > 500 units/ml; against Klebsiella 63 it was 100-500 units/ml. The MIC in the test on E. coli C 165 is 100-500 units/ml; against E. coli 14 it was 20-100 units/ml; against Klebsiella K 10, 100-500 units/ml; in the test with Staph. aureus 133, 0.8-4 units/ml; in the test with Psdm. aerug. Bonn, “approx. 500 units/ml”; against Psdm. aerug. Walter, 100-500 units/ml.

On to `CN(C(=O)NC(C(=O)N[C@@H]1C(=O)N2[C@@H]1SC(C)(C)[C@@H]2C(=O)O)c1c(Cl)cccc1Cl)C(=O)c1ccccc1` (stereo partly drawn) [Example 32, Sodium α-(3-benzoyl-3-methyl-ureido)-2,6-dichlorobenzyl-penicillin], for which the MIC against Proteus vulg. 3400 is recorded as 100-500 units/ml; with Proteus vulg. 1017, “approx. 100 units/ml”; against E. coli A 261, > 500 units/ml; with E. coli 183/58, 20-100 units/ml; in [1], 100-500 units/ml; against Klebsiella 63, “approx. 100 units/ml”. The MIC against E. coli C 165 is reported as 20-100 units/ml; in the test on E. coli 14 it was “approx. 20 units/ml”; in the test with Klebsiella K 10 it was 100-500 units/ml; in the test with Staph. aureus 133, ~0.8 units/ml; against Psdm. aerug. Bonn, 100-500 units/ml; with Psdm. aerug. Walter it was 100-500 units/ml.

Take `CCOC(=O)N(C)C(=O)NC(C(=O)N[C@@H]1C(=O)N2[C@@H]1SC(C)(C)[C@@H]2C(=O)O)c1ccc(SC)cc1` (stereo partly drawn) [Example 35, Sodium α-(3-ethoxycarbonyl-3-methyl-ureido)-4-methylthiobenzylpenicillin]: the MIC in the test with Proteus vulg. 3400 was 20-100 units/ml; with Proteus vulg. 1017, 20-100 units/ml; in the test on E. coli A 261 it was 100-500 units/ml; in the test with E. coli 183/58 it was 4-20 units/ml; in test [1], 20-100 units/ml; against Klebsiella 63, 20-100 units/ml. Besides, the MIC is given as 20-100 units/ml against E. coli C 165; “approx. 4 units/ml” against E. coli 14; 20-100 units/ml in the test with Klebsiella K 10; < 0.8 units/ml in the test with Staph. aureus 133; 4-20 units/ml against Psdm. aerug. Bonn; “approx. 20 units/ml” in the test with Psdm. aerug. Walter.
